In brackets after ≈: the same amount, converted by molar mass. Values belong to the compound of their own block, whether it stands above or below them.
Experiments:
Experiment in all cases: ≥ marks a high value that may be exact or a test limit, other limits are often not marked, values filed in µg/mL are converted to µM
[1] = system: Klebsiella pneumoniae CGMCC 1.1736
[2] = system: Staphylococcus epidermidis CGMCC 1.4260
[3] = system: Staphylococcus aureus CGMCC 1.8721
[4] = system: Pseudomonas aeruginosa CGMCC 1.2421
[5] = system: Bacillus subtilis CGMCC 1.3376
[6] = system: Escherichia coli CGMCC 1.8732
[7] = system: Saccharomyces cerevisiae SZMC 0644
Candida krusei CBS 573 = system: Candida krusei CBS 573
[8] = system: Candida albicans ATCC 10231
[9] = system: Candida parapsilosis CBS 604
[10] = system: Staphylococcus aureus 5118
[11] = system: Staphylococcus aureus E4049
[12] = system: Staphylococcus aureus ATCC 9144
[13] = system: Staphylococcus aureus ATCC 29213
[14] = system: Enterococcus faecalis JH-2-2
[15] = system: Acinetobacter baumannii Q13-0717
Escherichia coli = system: Escherichia coli
[16] = system: Pseudomonas aeruginosa Q12-0535
[17] = system: Listeria monocytogenes NCTC 11994
[18] = system: Salmonella typhimurium SL1344
[19] = system: Klebsiella pneumoniae NCTC 13442
Campylobacter jejuni = system: Campylobacter jejuni
[20] = system: Acinetobacter baumannii Q12-0809
[21] = system: Campylobacter jejuni NCTC 11351
[22] = system: Klebsiella pneumoniae ATCC 700603
[23] = system: Pseudomonas aeruginosa Q14-0890
[24] = system: Staphylococcus aureus Q14-0320
Escherichia coli K-12 = system: Escherichia coli K-12
[25] = system: Klebsiella pneumoniae Q14-0095
[26] = system: Staphylococcus aureus MRSA-15
[27] = system: Staphylococcus aureus RN4220
[28] = system: Pseudomonas aeruginosa Q12-0581
[29] = system: Pseudomonas aeruginosa ATCC 27853
[30] = system: Staphylococcus aureus Q14-0325
[31] = system: Acinetobacter baumannii Q12-0867
[32] = system: Staphylococcus aureus NCTC 12493
[33] = system: Pseudomonas aeruginosa Q14-0208
[34] = system: Pseudomonas aeruginosa PAO1
[35] = system: Staphylococcus aureus CCARM 3090
[36] = system: Listeria monocytogenes KCTC 3710
[37] = system: Staphylococcus aureus ATCC 25923
[38] = system: Escherichia coli ATCC 25922
[39] = system: Staphylococcus aureus CCARM 3518
[40] = system: Salmonella typhimurium KCTC 1926
[41] = system: Candida albicans KCTC 7270
[42] = system: Trichosporon beigelii KCTC 7707
[43] = system: Bacillus subtilis KCTC 1998
[44] = system: Escherichia coli CCARM 1238
[45] = system: Pseudomonas aeruginosa 4007
[46] = system: Escherichia coli CCARM 1229
[47] = system: Pseudomonas aeruginosa 4891

MIC [1]: ≥ 50 µM
MIC [2]: 12.5 µM (≈ 30.1 µg/mL)
MIC [3]: ≥ 50 µM
MIC [4]: 25 µM (≈ 60.2 µg/mL)
MIC [5]: 6.25 µM (≈ 15 µg/mL)
MIC [6]: 25 µM (≈ 60.2 µg/mL)
Structure (SMILES): CC[C@H](C)[C@H](NC(=O)[C@H](C)N)C(=O)NCC(=O)N[C@@H](CO)C(=O)N[C@H](C(=O)N[C@@H](CC(C)C)C(=O)NCC(=O)N[C@@H](C)C(=O)N[C@@H](CC(C)C)C(=O)N[C@@H](C)C(=O)N[C@@H](CCCCN)C(=O)NCC(=O)N[C@@H](CC(C)C)C(=O)N1CCC[C@H]1C(=O)N[C@H](C(=O)N[C@@H](CC(C)C)C(=O)N[C@@H](CCCCN)C(=O)N[C@@H](CO)C(=O)N[C@@H](Cc1c[nH]c2ccccc12)C(=O)N[C@H](C(=O)N[C@@H](CCCCN)C(=O)N[C@@H](CC(N)=O)C(=O)N[C@@H](CCCN=C(N)N)C(N)=O)[C@@H](C)CC)[C@@H](C)O)[C@@H](C)CC [AIGSILGALAKGLPTLKSWIKNR]

MIC [7]: ≥ 42.5 µM
MIC (Candida krusei CBS 573): ≥ 42.5 µM
MIC [8]: 42.5 µM (≈ 49.9 µg/mL)
MIC [9]: ≥ 42.5 µM
Structure (SMILES): NCCCC[C@H](NC(=O)CNC(=O)[C@H](CCCCN)NC(=O)[C@H](CC(N)=O)NC(=O)[C@@H]1CSSC[C@H](N)C(=O)N1)C(=O)N[C@@H](CC(N)=O)C(=O)N[C@@H](CCCCN)C(=O)NCC(=O)N[C@@H](CO)C(=O)N[C@@H](Cc1cnc[nH]1)C(=O)O [CCNKGKNKGSH]

MIC [10]: 2.3 µM (≈ 5 µg/mL)
MIC [11]: 7.82 µM (≈ 17 µg/mL)
MIC [12]: ≥ 280 µM
Structure (SMILES): CSCC[C@H](NC(=O)[C@H](C)NC(=O)[C@H](C)NC(=O)CNC(=O)[C@H](CCCN=C(N)N)NC(=O)[C@H](CC(=O)O)NC(=O)[C@@H](N)CC(=O)O)C(=O)N[C@@H](Cc1ccccc1)C(=O)N[C@@H](C)C(=O)N[C@H](C(=O)N[C@@H](CC(C)C)C(=O)N[C@@H](Cc1ccccc1)C(=O)N[C@@H](CC(N)=O)C(=O)N[C@@H](C)C(=O)N[C@@H](Cc1ccccc1)C(=O)N[C@@H](CO)C(=O)N[C@@H](CO)C(=O)N[C@@H](CC(C)C)C(=O)N[C@@H](CC(C)C)C(=O)N[C@@H](CCC(=O)O)C(=O)O)C(C)C [DDRGAAMFAVLFNAFSSLLE]

MIC [13]: 14.1 µM (≈ 32 µg/mL)
MIC [14]: ≥ 113 µM
MIC [15]: 28.3 µM (≈ 64 µg/mL)
MIC (Escherichia coli): > 56.5 µM
MIC [16]: ≥ 56.5 µM
MIC [17]: ≥ 113 µM
MIC [18]: ≥ 226 µM
MIC [19]: ≥ 56.5 µM
MIC (Campylobacter jejuni): ≥ 56.5 µM
MIC [20]: ≥ 56.5 µM
MIC [21]: ≥ 56.5 µM
MIC [22]: 56.5 µM (≈ 128 µg/mL)
MIC [23]: 7.06 µM (≈ 16 µg/mL)
MIC [24]: 28.3 µM (≈ 64 µg/mL)
MIC (Escherichia coli K-12): ≥ 113 µM
MIC [25]: ≥ 56.5 µM
MIC [26]: ≥ 110 µM
MIC [27]: ≥ 113 µM
MIC [28]: 14.1 µM (≈ 32 µg/mL)
MIC [29]: > 56.5 µM
MIC [30]: 14.1 µM (≈ 32 µg/mL)
MIC [31]: 14.1 µM (≈ 32 µg/mL)
MIC [32]: 14.1 µM (≈ 32 µg/mL)
MIC [33]: 28.3 µM (≈ 64 µg/mL)
MIC [34]: 226 µM (≈ 512 µg/mL)
Structure (SMILES): CC[C@H](C)[C@H](NC(=O)[C@H](Cc1ccccc1)NC(=O)[C@H](Cc1ccc(O)cc1)NC(=O)[C@@H](NC(=O)[C@H](CCCCN)NC(=O)[C@H](CC(C)C)NC(=O)[C@@H](NC(=O)[C@H](CCCCN)NC(=O)[C@@H](NC(=O)[C@@H](N)CO)[C@@H](C)CC)[C@@H](C)CC)[C@@H](C)CC)C(=O)N[C@@H](CCC(N)=O)C(=O)NCC(=O)N[C@@H](CCCCN)C(=O)N[C@@H](CCCN=C(N)N)C(=O)N[C@@H](Cc1cnc[nH]1)C(=O)N[C@@H](Cc1c[nH]c2ccccc12)C(=O)N[C@@H](CO)C(=O)N[C@@H](Cc1ccccc1)C(=O)O [SIKILKIYFIQGKRHWSF]

MIC [35]: 4 µM (≈ 11.5 µg/mL)
MIC [36]: 8 µM (≈ 23.1 µg/mL)
MIC [37]: 4 µM (≈ 11.5 µg/mL)
MIC [38]: 2 µM (≈ 5.77 µg/mL)
MIC [39]: 4 µM (≈ 11.5 µg/mL)
MIC [40]: 2 µM (≈ 5.77 µg/mL)
MIC [41]: ≥ 32 µM
MIC [42]: ≥ 32 µM
MIC [43]: 4 µM (≈ 11.5 µg/mL)
MIC [44]: 2 µM (≈ 5.77 µg/mL)
MIC [29]: 2 µM (≈ 5.77 µg/mL)
MIC [45]: 2 µM (≈ 5.77 µg/mL)
MIC [46]: 2 µM (≈ 5.77 µg/mL)
MIC [47]: 4 µM (≈ 11.5 µg/mL)
Structure (SMILES): CC[C@H](C)[C@H](NC(=O)CNC(=O)[C@H](CCC(N)=O)NC(=O)[C@H](Cc1ccccc1)NC(=O)[C@@H](NC(=O)[C@H](CCCCN)NC(=O)[C@H](CCCCN)NC(=O)[C@H](CC(C)C)NC(=O)[C@H](C)NC(=O)[C@H](CC(N)=O)NC(=O)[C@H](CC(C)C)NC(=O)[C@@H](N)Cc1c[nH]c2ccccc12)C(C)C)C(=O)N[C@@H](Cc1cnc[nH]1)C(=O)N[C@@H](CCC(=O)O)C(=O)N[C@@H](C)C(=O)N[C@H](C(=O)N[C@@H](CCCCN)C(=O)N[C@@H](CC(C)C)C(=O)N[C@H](C(=O)N[C@@H](Cc1c[nH]c2ccccc12)C(=O)N[C@@H](CC(N)=O)C(=O)N[C@@H](Cc1cnc[nH]1)C(=O)N[C@H](C(=O)N[C@@H](CCC(N)=O)C(N)=O)C(C)C)[C@@H](C)CC)[C@@H](C)CC [WLNALKKVFQGIHEAIKLIWNHVQ]
